The results in this text go back to publication PMC12530842, “Potent, Selective, and Drug‐Like G Protein‐Coupled Receptor Kinase 5 and 6 Inhibitors: Design, Synthesis, and X‐Ray Structural Studies” (Chemmedchem, 2025).

Holding throughout (assay type): biochemical
The target of one experiment is T1, GRK2 (Homo sapiens, UniProt P25098).
T1 construct: made in house
T1 sequence (P25098 1-689): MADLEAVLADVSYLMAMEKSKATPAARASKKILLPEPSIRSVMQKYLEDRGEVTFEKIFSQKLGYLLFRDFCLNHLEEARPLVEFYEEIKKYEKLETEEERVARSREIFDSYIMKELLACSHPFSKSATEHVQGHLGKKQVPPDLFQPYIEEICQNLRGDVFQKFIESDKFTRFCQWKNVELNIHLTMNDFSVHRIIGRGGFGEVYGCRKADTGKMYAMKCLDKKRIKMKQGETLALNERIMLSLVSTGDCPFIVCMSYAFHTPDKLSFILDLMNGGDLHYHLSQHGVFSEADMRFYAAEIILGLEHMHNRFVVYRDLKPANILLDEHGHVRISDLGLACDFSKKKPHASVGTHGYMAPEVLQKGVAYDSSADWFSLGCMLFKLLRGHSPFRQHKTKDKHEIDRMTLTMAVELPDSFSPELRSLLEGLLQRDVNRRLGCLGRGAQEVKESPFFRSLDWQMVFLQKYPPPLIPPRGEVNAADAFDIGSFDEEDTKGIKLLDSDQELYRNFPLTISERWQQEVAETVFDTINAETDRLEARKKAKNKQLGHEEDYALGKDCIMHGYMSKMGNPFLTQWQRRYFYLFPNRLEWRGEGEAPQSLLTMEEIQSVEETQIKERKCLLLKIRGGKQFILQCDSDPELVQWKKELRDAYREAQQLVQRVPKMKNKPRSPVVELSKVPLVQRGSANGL
Kind of experiment: GRK2 kinase inhibition assay, phosphorylation of tubulin ([γ-32P]-ATP). The settings on record: phosphorylation of the soluble substrate tubulin; ± standard deviation from 3 to 4 independent experiments. The protocol:
(§1) The inhibitory potency of synthetic compounds containing the N‐heterocyclic amide functionalities was evaluated against human GRK2, GRK5 and GRK6 using our in vitro assays‐, as reported previously.^[ [35], [37] ^] […] We then investigated the effect of (R)‐ and (S)‐Boc pyrrolidine carboxamide derivatives. […] These improvements of GRK5 IC50 values over their Boc‐derivatives (6c and 6d) indicated the bulky Boc group may not be able to fit as well in the catalytic site of these GRKs. On the other hand, sterically less demanding acetamide derivatives 6e and 6f were well accommodated consistent with their very good activity against GRK5, GRK6, and GRK2, but only with marginal selectivity against GRK2. […] We also examined the effect of 3(S)‐ and 3(R)‐Boc‐pyrrolidine derivatives.
(§2) Protein expression and purification.
(§3) Human GR K5 (residues 1- 590) w ild- type and D 311N mutant w ere expressed in E. co li Rosetta (D E3) and purified v ia nickel-nitrilotriacetic acid affinity chromatography, followed by tandem columns consisting of a HiTrap Q HP anion exchange chromatography column and a HiTrap SP HP cation exchange chromatography column, and finished by Superdex 200 Increase size -exclusion chromatography, as described previously. Human GRK6 (with T10A and mutations that eliminate palmitoylation sites) was expressed in Sf9 insect cells [ 2] and was purified w ith the same protocol for GR K5 [1]. Human GRK2 w as purified as described previously.
(§4) Kinase inhibition Assays.
(§5) Inhibit ion assays were conducted in a reaction mixture containing 20 mM H EPES pH 7. 0, 2 mM MgC l2, and 0.025% n- dodecyl-β-D-maltoside. Prior to reaction initiation, GR K5 or GR K6 at 50 nM was mixed w ith porcine brain tubulin ( PurSolutions) at a concentration of 500 nM. The assay w as started w ith a 30- second incubation of inhibitors, followed by the add it ion of 5 μ M ATP supplemented w ith radioactive [γ-32P]-AT P a t 60 C i/m mol (PerkinElm er Life Sciences). Re actions pro ceeded for 5 m inut es at ro o m te mpera ture a nd were terminated by adding 4X SDS loading buffer. T he reaction mixtures were then s eparated via SDS - PAG E, dried, and exposed using a phosphor imaging screen. Quantification was performed using a Personal Molecular Imager and Quantity One 1- D Analysis Software. Analogous inhibition assays were conducted on p urified GR K2 wit h a t ub ulin conce ntrat ion of 1 μ M. Data ana lysis was perf orme d usin g Graph Pa d Pr ism, and IC50 values wer e calculated based on three- parameter dose- dependent curves (with a Hill coefficient fixed at 1) plotting phosphate transfer against inhibitor concentration. At least three replicates were conducted to determine the mean and standard deviation of IC50 values as published previously . […]
(§6) (6) The final models w ere validated with MolProbity prior to depos ition along with structure factors in the Protein Data Bank. Atomic figures were created with Py mol (7). Cr ystallographic statistics are reported in Supplemental Table 1. Coordinates for inh ib itor 6t (GRL-098- 22) w ere deposited in the Protein Data Bank, with accession code 9BR K.
(§7) 1. Y. Chen, A. Sonawane, R. Manda, R. K. G adi, J. J. G. Tesmer, A. K. Ghosh. Development of a new class of potent and highly select ive G protein- coupled r eceptor kinase 5 inhibitors and structural insight from crystal structures of inhibitor complexes. Eur. J. Med. Chem. 2024, 264, 115931.
(§8) 2. D. T. Lodowski, V. M. T esmer, J. L. Benovic, J. J. Tesmer. The structure of G protein- coupled receptor kinase (GRK)-6 defines a second lineage of GRKs. J. Bio l. C he m. 2006, 281,16785- 16793.

The target of another experiment is T2, GRK5 (Homo sapiens, UniProt P34947).
T2 construct: Human GR K5 (residues 1- 590) w ild- type and D 311N mutant w ere expressed in E. co li Rosetta; His tag (inferred from nickel-NTA purification); made in house; host or cells: E. coli Rosetta (DE3)
Kind of experiment: GRK5 kinase inhibition assay, phosphorylation of tubulin ([γ-32P]-ATP). The settings on record: for Selectivity GRK2/GRK5: fold selectivity for GRK5 over GRK2; for IC50: phosphorylation of the soluble substrate tubulin, ± standard deviation from 3 to 4 independent experiments. How it is done: as §1, §2, §3, §4, §5, §6, §7, §8

The target of a further experiment is T3, GRK6 (Homo sapiens, UniProt P43250, C561S/C562S/C565S/T10A).
T3 construct: His tag (inferred: purified by the GRK5 protocol, which starts with nickel-NTA); made in house; host or cells: Sf9 insect cells
Kind of experiment: GRK6 kinase inhibition assay, phosphorylation of tubulin ([γ-32P]-ATP). The settings on record: for Selectivity GRK5/GRK6: fold selectivity for GRK6 over GRK5; for IC50: phosphorylation of the soluble substrate tubulin, ± standard deviation from 3 to 4 independent experiments. How it is done:
as §1, §2, §3, §4, §5, §6, §7, §8

T2 sequence (P34947 whole entry, the tested form may be a part): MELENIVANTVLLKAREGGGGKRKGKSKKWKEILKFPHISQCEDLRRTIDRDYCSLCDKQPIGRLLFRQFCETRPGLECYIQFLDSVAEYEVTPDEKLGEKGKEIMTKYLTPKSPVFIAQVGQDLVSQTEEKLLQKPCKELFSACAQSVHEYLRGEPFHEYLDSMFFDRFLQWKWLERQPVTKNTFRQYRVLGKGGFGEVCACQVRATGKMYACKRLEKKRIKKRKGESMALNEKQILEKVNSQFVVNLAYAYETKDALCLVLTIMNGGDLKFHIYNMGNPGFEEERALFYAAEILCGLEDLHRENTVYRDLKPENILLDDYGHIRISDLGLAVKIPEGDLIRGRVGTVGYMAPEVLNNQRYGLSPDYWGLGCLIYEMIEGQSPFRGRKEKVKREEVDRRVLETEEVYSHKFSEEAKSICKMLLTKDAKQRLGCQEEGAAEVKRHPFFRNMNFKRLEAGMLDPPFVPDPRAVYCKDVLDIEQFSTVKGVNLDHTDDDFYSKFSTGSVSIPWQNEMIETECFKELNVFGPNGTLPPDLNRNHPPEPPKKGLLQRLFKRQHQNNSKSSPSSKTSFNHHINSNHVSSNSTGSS
T3 sequence (P43250 whole entry T10A/C561S/C562S/C565S): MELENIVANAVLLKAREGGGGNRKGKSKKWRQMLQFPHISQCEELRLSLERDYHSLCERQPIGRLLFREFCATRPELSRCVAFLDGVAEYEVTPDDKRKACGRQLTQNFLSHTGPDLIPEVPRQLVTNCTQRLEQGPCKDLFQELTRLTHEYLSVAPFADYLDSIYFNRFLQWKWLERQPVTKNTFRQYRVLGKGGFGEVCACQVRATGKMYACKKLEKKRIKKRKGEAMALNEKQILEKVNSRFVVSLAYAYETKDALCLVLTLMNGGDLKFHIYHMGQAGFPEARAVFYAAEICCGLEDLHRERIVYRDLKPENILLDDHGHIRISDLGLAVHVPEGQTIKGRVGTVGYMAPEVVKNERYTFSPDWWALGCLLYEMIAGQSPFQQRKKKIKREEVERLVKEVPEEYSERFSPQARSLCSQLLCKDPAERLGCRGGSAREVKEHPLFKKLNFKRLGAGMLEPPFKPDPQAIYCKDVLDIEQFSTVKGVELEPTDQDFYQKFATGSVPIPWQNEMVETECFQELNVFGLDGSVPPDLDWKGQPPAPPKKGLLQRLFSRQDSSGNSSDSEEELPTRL

With `Cc1[nH]c(/C=C2\C(=O)Nc3ccc(C(=O)N[C@H](C)c4ccc(F)cc4)cc32)c(C)c1NC(=O)[C@H]1CCCN(C(=O)OC(C)(C)C)C1` [6o, Tert‐Butyl(S)‐3‐((5‐(((Z)‐5‐(((R)‐1‐(4‐Fluorophenyl)Ethyl)Carbamoyl)‐2‐Oxoindolin‐3‐Ylidene)Methyl)‐2,4‐Dimethyl‐1H‐Pyrrol‐3‐Yl)Carbamoyl)Piperidine‐1‐Carboxylate], the results for the IC50 at GRK2, against GRK5 and against GRK6 were 6.2 ± 3 µM, 0.094 ± 0.01 µM and 0.15 ± 0.06 µM, respectively. Moreover, the “Selectivity GRK2/GRK5” value on GRK5 is recorded as 66 fold. For the same molecule, the “Selectivity GRK5/GRK6” value at GRK6 is recorded as 1 fold.

At GRK2, `Cc1[nH]c(/C=C2\C(=O)Nc3ccc(C(=O)N[C@H](C)c4ccc(F)cc4)cc32)c(C)c1NC(=O)[C@@H]1CN(C(=O)OC(C)(C)C)CCN1` [6t, Tert‐Butyl(S)‐3‐((5‐(((Z)‐5‐(((R)‐1‐(4‐Fluorophenyl)Ethyl)Carbamoyl)‐2‐Oxoindolin‐3‐Ylidene)Methyl)‐2,4‐Dimethyl‐1H‐Pyrrol‐3‐Yl)Carbamoyl)Piperazine‐1‐Carboxylate] returned an IC50 of over 1000 µM. For the same molecule, at GRK5, the “Selectivity GRK2/GRK5” value was over 1600 fold and the IC50 was found to be 0.6 ± 0.1 µM. For the same molecule, at GRK6, the “Selectivity GRK5/GRK6” value was 7 fold and the IC50 came to 0.09 µM.

`CC(=O)N1CCCC1C(=O)Nc1c(C)[nH]c(C=C2C(=O)Nc3ccc(C(=O)NC(C)c4ccc(F)cc4)cc32)c1C` [6f, ((Z)‐3‐((4‐((S)‐1‐Acetylpyrrolidine‐2‐Carboxamido)‐3,5‐Dimethyl‐1H‐Pyrrol‐2‐Yl)Methylene)‐N‐((R)‐1‐(4‐Fluorophenyl)Ethyl)‐2‐Oxoindoline‐5‐Carboxamide] came in with an IC50 on GRK2 of 0.9 ± 0.3 µM. In addition, at GRK5, the “Selectivity GRK2/GRK5” value is 15 fold and inhibition was half-maximal at 0.06 ± 0.02 µM (IC50). Besides, on GRK6, the “Selectivity GRK5/GRK6” value amounted to 2 fold and the IC50 came to 0.031 ± 0.02 µM.

On to `Cc1[nH]c(/C=C2\C(=O)Nc3ccc(C(=O)N[C@H](C)c4ccc(F)cc4)cc32)c(C)c1NC(=O)[C@@H]1CCCCN1C(=O)OC(C)(C)C` [6n, Tert‐Butyl(S)‐2‐((5‐(((Z)‐5‐(((R)‐1‐(4‐Fluorophenyl)Ethyl)Carbamoyl)‐2‐Oxoindolin‐3‐Ylidene)Methyl)‐2,4‐Dimethyl‐1H‐Pyrrol‐3‐Yl)Carbamoyl)Piperidine‐1‐Carboxylate], for which the values for the IC50 on GRK2, against GRK5 and on GRK6 were 100 ± 70 µM, 33 ± 6 µM and 0.9 ± 0.8 µM, respectively. For the same molecule, the “Selectivity GRK2/GRK5” value at GRK5 came to 3 fold. Further, the “Selectivity GRK5/GRK6” value at GRK6 stood at 37 fold.

`Cc1[nH]c(/C=C2\C(=O)Nc3ccc(C(=O)N[C@H](C)c4ccc(F)cc4)cc32)c(C)c1NC(=O)[C@@H]1CNCCN1` [6v, (Z)‐3‐((3,5‐Dimethyl‐4‐((S)‐Piperazine‐2‐Carboxamido)‐1H‐Pyrrol‐2‐Yl)Methylene)‐N‐((R)‐1‐(4‐Fluorophenyl)Ethyl)‐2‐Oxoindoline‐5‐Carboxamide] registered an IC50 at GRK2 of 0.19 ± 0.1 µM. At GRK5, the “Selectivity GRK2/GRK5” value was 10 fold and the IC50 worked out at 0.016 ± 0.0005 µM. Further, at GRK6, the “Selectivity GRK5/GRK6” value is 1 fold and the IC50 is 0.026 ± 0.02 µM.

At GRK2, `Cc1[nH]c(/C=C2\C(=O)Nc3ccc(C(=O)N[C@H](C)c4ccc(F)cc4)cc32)c(C)c1NC(=O)[C@@H]1CCC(=O)N1` [6a, (Z)‐3‐((3,5‐Dimethyl‐4‐((S)‐5‐Oxopyrrolidine‐2‐Carboxamido)‐1H‐Pyrrol‐2‐Yl)Methylene)‐N‐((R)‐1‐(4‐Fluorophenyl)Ethyl)‐2‐Oxoindoline‐5‐Carboxamide] yielded an IC50 of 0.71 ± 0.4 µM. Further, at GRK5, the “Selectivity GRK2/GRK5” value was determined as 26 fold and the IC50 was determined as 0.027 ± 0.006 µM. Besides, on GRK6, the “Selectivity GRK5/GRK6” value is reported as 1 fold and the IC50 turned out to be 0.02 ± 0.01 µM.

With `Cc1[nH]c(/C=C2\C(=O)Nc3ccc(C(=O)N[C@H](C)c4ccc(F)cc4)cc32)c(C)c1NC(=O)[C@H]1CCCN1` [6g, (Z)‐3‐((3,5‐Dimethyl‐4‐((R)‐Pyrrolidine‐2‐Carboxamido)‐1H‐Pyrrol‐2‐yl)Methylene)‐N‐((R)‐1‐(4‐Fluorophenyl)Ethyl)‐2‐Oxoindoline‐5‐Carboxamide], the IC50 came out at 0.1 ± 0.01 µM against GRK2, 0.04 ± 0.02 µM on GRK5 and 0.03 ± 0.002 µM at GRK6. Moreover, the “Selectivity GRK2/GRK5” value on GRK5 was 3 fold. Moreover, on GRK6, the “Selectivity GRK5/GRK6” value came out at 1 fold.

The IC50 is the concentration at which inhibition is half-maximal. Lower therefore signals inhibition by little substance.
